Data reported in paper PMC10675071, “Identification of Crocetin as a Dual Agonist of GPR40 and GPR120 Responsible for the Antidiabetic Effect of Saffron” (Nutrients, 2023).

Tests used:
Assay type in all cases: cell-based
[1] = biological target: T1, GPR40 (Homo sapiens, UniProt O14842); experiment: SRE-luciferase (Gq) reporter assay, CHO cells, dose-response curve; settings: agonist
T1 construct: gene FFAR1; plasmid of untold source and species, transiently cotransfected with SRE-Luc or CRE-Luc in CHO-K1 cells

[2] = biological target: T1, GPR40; experiment: SRE-luciferase (Gq) reporter assay, CHO cells; settings: 24 h, 37 °C
[3] = biological target: T1, GPR40; experiment: SRE-luciferase (Gq) reporter assay, CHO cells

T1 sequence (O14842 whole entry): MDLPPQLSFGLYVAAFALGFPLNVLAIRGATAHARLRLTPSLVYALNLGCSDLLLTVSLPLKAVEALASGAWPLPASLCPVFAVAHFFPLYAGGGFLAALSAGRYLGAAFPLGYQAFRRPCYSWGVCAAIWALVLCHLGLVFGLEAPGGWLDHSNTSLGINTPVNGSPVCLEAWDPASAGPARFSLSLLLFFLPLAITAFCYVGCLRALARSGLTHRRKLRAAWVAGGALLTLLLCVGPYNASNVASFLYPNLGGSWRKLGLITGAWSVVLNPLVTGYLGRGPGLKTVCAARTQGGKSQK

For `CCCCC/C=C\C/C=C\CCCCCCCC(=O)O` [linoleic acid], the “SRE-luciferase (Gq) reporter assay, CHO cells, dose-response curve” value [1] was “increasing crocetin concentrations on dose−response curves of LA”.
Compound `CC(/C=C/C=C(\C)C(=O)O[C@@H]1O[C@H](CO[C@@H]2O[C@H](CO)[C@@H](O)[C@H](O)[C@H]2O)[C@@H](O)[C@H](O)[C@H]1O)=C\C=C\C=C(C)\C=C\C=C(/C)C(=O)O[C@@H]1O[C@H](CO[C@@H]2O[C@H](CO)[C@@H](O)[C@H](O)[C@H]2O)[C@@H](O)[C@H](O)[C@H]1O` [crocin] has an Emax [2] of 6.00%.
In the case of `CC(/C=C/C=C(\C)C(=O)O)=C\C=C\C=C(C)\C=C\C=C(/C)C(=O)O` [crocetin], the EC50 [3] is reported as 2910 ± 320 nM.
